Measurements: PubChem BioAssay AID1626 (SRMLSC, 2009)

System: M. tuberculosis H37Rv growth inhibition
Test: M. tuberculosis H37Rv growth inhibitors, H37Rv strain (AID 1626)
Conditions: for IC90: measured here: IC90 against H37Rv; for CC50: measured here: Vero cell cytotoxicity

| Compound | IC50 [µM] | IC90 [µM] | CC50 [µM] |
| --- | --- | --- | --- |
| CCCCn1c(=O)c(C(=O)Nc2cnccn2)c(O)c2ccccc21 | 5.79 | 6.45 | 18.2 |
| CCOCC(=O)Nc1ccc(OCc2ccccc2)cc1 | 29.5 | > 100 | – |
| O=C(CCC(=O)Nc1ccc(Oc2ccccc2)cc1)NCCO | – | > 100 | – |
| Cc1ncn(-c2ccc(C(=O)Oc3ccccc3)cn2)n1 | 12.3 | > 100 | 35.3 |
| Cc1ccc(C(=O)NCCSC(C)(C)C)cc1[N+](=O)[O-] | 2.96 | 3.32 | – |
| Oc1cccc2ccc(/C=C/c3ccc(Br)s3)nc12 | 2.56 | > 100 | 32.4 |
| N=C1SC(c2ccccc2)C(=O)N1c1ncc(Cc2ccccc2Cl)s1 (stereo not given) | 71 | > 100 | 29.5 |
| CC(=O)c1ccc(OCC(=O)Nc2ccc3c(c2)CCC3)cc1 | 12.6 | > 100 | > 40 |
| CCOC(=O)CSc1nnc(-c2ccc(OC)cc2OC)o1 | 1.24 | 2.38 | – |
| CCOC(=O)c1ccc(NC(=O)CCC2COc3ccccc3O2)cc1 (stereo not given) | 3.3 | > 100 | – |
| Clc1ccc(-c2nnc3sc(Cc4cccs4)nn23)cc1 | 19.6 | > 100 | – |
| O=C(CCSc1ccccc1)Nc1nnc(-c2ccccc2)o1 | – | > 100 | – |
| CCOC(=O)CNC(=O)CSc1nc(-c2ccccc2)ns1 | 1.48 | 3.2 | – |
| COc1ccc(N=Cc2cc(Cl)ccc2O)cc1Cl | 7.49 | > 100 | – |
| CCOc1ccc(N=Cc2c(O)n(-c3cccc(C)n3)c(=O)c3ccccc23)cc1 | 14.7 | > 100 | – |
| COc1ccc(NC(C)c2cc(Cl)ccc2O)cc1 (stereo not given) | – | > 100 | – |
| O=C(Nc1ccccc1F)C(=Cc1sc(N2CCOCC2)nc1-c1ccccc1)C(=O)Nc1ccccc1F | 51 | > 100 | > 40 |
| c1ccc(Nc2nc(-c3ccccn3)cs2)cc1 | 0.376 | 0.854 | > 40 |
| Cc1ccc(CN2CCSc3ccc(C(=O)NC4CCN(Cc5ccccc5)CC4)cc32)cc1 | – | – | 18.4 |
| CCOc1ccc(-c2nnc(NC(=O)c3ccc(OCC(C)C)c(OC)c3)o2)cc1 | 10.1 | > 100 | 25.3 |
| O=C(Nc1ccc(-n2cccc2)cc1)C1CC1 | < 0.195 | > 100 | – |

| Compound | IC50 [µM] | IC90 [µM] | CC50 [µM] |
| --- | --- | --- | --- |
| CC(C)(c1ccccc1)c1ccc(OCC(O)CNC2CCN(Cc3ccccc3)CC2)cc1 (stereo not given) | 4.53 | 6.06 | 6.22 |
| CCOC(=O)N1C/C(=C\c2ccccc2)C(=O)/C(=C/c2ccccc2)C1 | 2.11 | > 100 | 19.3 |
| Cc1cc(NC(=O)CSc2nnc(-c3ccccc3)o2)no1 | 5.7 | 10.1 | > 40 |
| Cc1ccc(/C=C/C(=O)C2C(=O)c3ccccc3C2=O)cc1 | 3.39 | 5.29 | > 40 |
| COc1cc(NC(=O)c2ccc(Cl)cc2)c(OC)cc1NC(=O)CN1CCCCC1 | 8.74 | 16.9 | – |
| CCOC(=O)CN(C#N)c1nc(N(C)C)nc(N(C)C)n1 | 9.34 | 11.7 | – |
| Cc1nn2c(NCCCN(C)C)c3c(nc2c1-c1ccccc1)CCC3 | 45.7 | 50.1 | 23.2 |
| Cc1nc(N/C(N)=N/S(=O)(=O)c2ccc([N+](=O)[O-])cc2)nc2ccccc12 | 9.12 | > 100 | > 40 |
| CCOC(=O)c1ccc(NC(=O)CCc2ccc(CC)o2)cc1 | 2.25 | 17.2 | – |
| Cc1ccc(C)c(N=Nc2ccc(O)c3ncccc23)c1 | 68.5 | > 100 | 1.85 |
| Cc1nc(N2CCN(Cc3ccc4c(c3)OCO4)CC2)c2cc(-c3ccccc3)sc2n1 | 5.39 | 6.08 | > 40 |
| C=CCNc1cc(C(F)(F)F)nc(-c2ccccn2)n1 | 4.87 | 16.3 | – |
| COc1ccc(CCNC(=O)c2c(N)n(CCN3CCOCC3)c3nc4ccccc4nc23)cc1 | 11.3 | 19.1 | > 40 |
| CCCc1nn(C)c(C(=O)Nc2ccc(CC)cc2)c1Cl | – | > 100 | – |
| CC(C)Cc1c(O)nc(SCC(=O)Nc2ccc3c(c2)CCC3)[nH]c1=O | – | > 100 | – |
| O=C(COc1ccc2c(c1)OCO2)Nc1ccc2c(c1)oc1ccccc12 | – | > 100 | > 40 |
| COC(=O)CCCn1c(C)cc(C(=O)CCl)c1C | 5.45 | 18.4 | 21.1 |
| O=C(Nc1nnc(-c2ccncc2)o1)c1ccc(Br)s1 | 15 | 29.7 | 20.6 |
| CC(=O)Nc1nc2ccccc2n1Cc1ccccc1 | 2.74 | 3.59 | > 40 |
| CCOc1ccc(Nc2nc(N)nc(CN3CCN(c4ccccc4F)CC3)n2)cc1 | 7.83 | 16.8 | – |
| CCc1ccc(NC(=O)CSc2ccccn2)cc1 | 22.1 | > 100 | – |

| Compound | IC50 [µM] | IC90 [µM] | CC50 [µM] |
| --- | --- | --- | --- |
| CSc1ccc(NC(=O)N2CCN(c3nc4ccccc4s3)CC2)cc1 | 9.18 | > 100 | > 40 |
| COC(=O)CSc1nc(-c2ccccc2)c2c(c1C#N)CCCC2 | 5.24 | 8.33 | – |
| CC(C)OC(=O)CSc1nnc(-c2ccc(Cl)cc2Cl)o1 | < 0.195 | 9.2 | – |
| CNC(=O)c1c(NC(=O)c2nc3ccccc3s2)sc2c1CCC2 | – | – | > 40 |
| Cc1nc(-c2ccccn2)nc(SCC(=O)c2ccc(F)cc2)c1Cl | 7.37 | 13.8 | > 40 |
| CCCCOC(=O)c1ccc(OC(=O)c2cccnc2)cc1 | 7.04 | > 100 | > 40 |
| C=CCOC(=O)C(C#N)c1nc2ccccc2nc1N1CCN(Cc2ccc3c(c2)OCO3)CC1 (stereo not given) | 5.44 | 6.17 | > 40 |
| Oc1c(Cl)cc(Cl)cc1/C=C/c1ccc2cccc(O)c2n1 | 3.06 | > 100 | 10.1 |
| O=c1oc2ccc(Br)cc2cc1-c1nc2ccccc2o1 | 2 | 3.83 | – |
| O=C(/C=C/c1cccc2ccccc12)c1ccncc1 | 8.2 | 12.7 | > 40 |
| FC(F)(F)c1cccc(Sc2nc(-c3ccccc3)nnc2C(F)(F)F)c1 | 7.32 | > 100 | > 40 |
| Oc1ccc(Cl)cc1N=Cc1sc2ccccc2c1Cl | 6.53 | 66.7 | > 40 |
| CC(=O)n1cc(N(C(=O)CCl)c2ccc(C)cc2)c2ccccc21 | 4.64 | 17.1 | 0.471 |
| CC1CCN(c2nc(CN3CCCCC3)nc3scc(-c4ccccc4)c23)CC1 | 9.11 | 11.9 | 34.9 |
| Clc1cccc(-c2nc(NCCN3CCOCC3)c3ccccc3n2)c1 | 12.6 | 17.6 | > 40 |
| Cc1ccc2nc(Cl)c(/C=C/C(=O)c3ccco3)cc2c1 | 2.26 | 4.01 | 25 |
| CN(c1ccccc1)c1nc(N2CCCC2)nc(-n2ccnc2)n1 | 3.05 | 3.54 | > 40 |
| CCCCCCCCn1c2c(c(=N)c3ccccc31)CCC2 | 6.24 | 9.17 | 9.55 |
| COc1ccc(C2NCCc3c2[nH]c2ccccc32)cc1COc1ccc(F)cc1 (stereo not given) | 3.11 | 3.39 | 12.1 |
| Cc1ccc(-c2csc3nc[nH]c(=S)c23)cc1C | 20 | > 100 | 26.1 |
| Cc1ccccc1-c1cc(C(=O)Nc2nc3c(s2)CCCC3)c2ccccc2n1 | 4.41 | 12.7 | > 40 |

| Compound | IC50 [µM] | IC90 [µM] | CC50 [µM] |
| --- | --- | --- | --- |
| O=C(COC(=O)/C=C/c1nc2ccccc2s1)Nc1cccc(Cl)c1Cl | – | > 100 | – |
| O=C(Nc1nccs1)c1sc2ccccc2c1Cl | 15.1 | > 100 | > 40 |
| COc1ccccc1-c1nc(-c2ccccc2)nc(N2CCN(C)CC2)c1C#N | 16.5 | 22 | > 40 |
| CC(=O)Nc1cccc(C(=O)/C=C/c2ccc(Br)cc2)c1 | 6.48 | 9.82 | 10.7 |
| O=C1Nc2ccccc2/C1=N\N=C\C1=C(N2CCOCC2)C(=C\c2ccccc2)/CC1 | 1.29 | 1.86 | > 40 |
| O=C(Nc1nc2c(F)cc(F)cc2s1)c1ccccn1 | 0.34 | 1.49 | 3.89 |
| O=C(COC(=O)Cc1ccccc1F)Nc1ccc2c(c1)OCO2 | – | > 100 | – |
| CC(=O)n1cc(N(C(=O)CCl)c2ccccc2)c2ccccc21 | 3.1 | 7.33 | 0.792 |
| O=C(Nc1nnc(-c2ccc(F)cc2)o1)c1cc(Cl)sc1Cl | < 0.195 | 2.86 | 18.2 |
| O=C(c1ccc(CNc2c(N3CCCC3)c(=O)c2=O)cc1)N1CC=C(c2ccccc2)CC1 | 26.2 | > 100 | – |
| O=C(Nc1nnc(-c2ccco2)o1)c1ccc([N+](=O)[O-])s1 | 6.03 | 8.57 | 16.6 |
| c1cnc2c(c1)ccc1cccnc12 | 4.46 | 8.17 | 3.98 |
| Cc1ccc(NC(=O)c2nc[nH]c2C(=O)N[C@@H](C)c2ccccc2)cc1 | 2.16 | 6.42 | > 40 |
| Cc1cccc(NC(=O)c2nc[nH]c2C(=O)N[C@@H](C)C(=O)OCc2ccccc2)c1 | 59.9 | > 100 | – |
| O=C(CSCc1nc2ccccc2[nH]1)Nc1ccc(Oc2ccccc2)cc1 | 22.9 | > 100 | > 40 |
| CCOC(=O)CSc1ccc(-c2nc3ccccc3[nH]2)cn1 | 2.98 | 5.54 | > 40 |
| Nc1ncnc2c1ccn2[C@@H]1O[C@H](CO)[C@@H](O)[C@H]1O | 2.44 | 3.87 | 0.131 |
| COc1ccc(-c2nn(-c3ccccc3)cc2/C=N/N=C(N)N)cc1OC | 13.3 | 22.6 | 32.3 |
| CCOC(=O)Nc1ccc(C(=O)Oc2ccccc2)c(O)c1 | < 0.195 | > 100 | > 40 |
| Nc1cnn(Cc2ccc(F)cc2)c1 | – | > 100 | – |
| COCCOC(=O)c1c(C)oc2ccc(OC(=O)c3ccco3)cc12 | 7.1 | > 100 | – |
